Test system: 922993-354-T-J3-PDC complex spheroid viability
Experiment: Anticancer human tumor 922993-354-T-J3-PDC patient-derived endometrial carcinoma cell line growth inhibition [POLQ]
Settings: for IC50: curve of first compound; for viability, T/C: stronger effect = lower value
How it was run: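 Complex spheroid viability model combining PDC tumour cells with endothelial (HUVEC) and MSC stromal cells. Novobiocin, ART-558 or RP6685 were tested singly and in combination with standard and investigational anticancer drugs. Each was titrated in half-log steps from near clinical Cmax, or from 10 microM where Cmax was unknown.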

[1] = second compound 0.0316 µM, first compound 0.0316 µM
[2] = second compound 0.0316 µM, first compound 0.1 µM
[3] = second compound 0.0316 µM, first compound 0.316 µM
[4] = second compound 0.0316 µM, first compound 1 µM
[5] = second compound 0.0316 µM, first compound 3.16 µM
[6] = second compound 0.0316 µM, first compound 10 µM
[7] = second compound 0.1 µM, first compound 0.0316 µM
[8] = second compound 0.1 µM, first compound 0.1 µM
[9] = second compound 0.1 µM, first compound 0.316 µM
[10] = second compound 0.1 µM, first compound 1 µM
[11] = second compound 0.1 µM, first compound 3.16 µM
[12] = second compound 0.1 µM, first compound 10 µM
[13] = second compound 0.316 µM, first compound 0.0316 µM
[14] = second compound 0.316 µM, first compound 0.1 µM
[15] = second compound 0.316 µM, first compound 0.316 µM
[16] = second compound 0.316 µM, first compound 1 µM
[17] = second compound 0.316 µM, first compound 3.16 µM
[18] = second compound 0.316 µM, first compound 10 µM
[19] = second compound 1 µM, first compound 0.0316 µM
[20] = second compound 1 µM, first compound 0.1 µM
[21] = second compound 1 µM, first compound 0.316 µM
[22] = second compound 1 µM, first compound 1 µM
[23] = second compound 1 µM, first compound 3.16 µM
[24] = second compound 1 µM, first compound 10 µM
[25] = second compound 3.16 µM, first compound 0.0316 µM
[26] = second compound 3.16 µM, first compound 0.1 µM
[27] = second compound 3.16 µM, first compound 0.316 µM
[28] = second compound 3.16 µM, first compound 1 µM
[29] = second compound 3.16 µM, first compound 3.16 µM
[30] = second compound 3.16 µM, first compound 10 µM
[31] = second compound 10 µM, first compound 0.0316 µM
[32] = second compound 10 µM, first compound 0.1 µM
[33] = second compound 10 µM, first compound 0.316 µM
[34] = second compound 10 µM, first compound 1 µM
[35] = second compound 10 µM, first compound 3.16 µM
[36] = second compound 10 µM, first compound 10 µM
[37] = second compound 0.0316 µM, first compound 0.00316 µM
[38] = second compound 0.0316 µM, first compound 0.01 µM
[39] = second compound 0.1 µM, first compound 0.00316 µM
[40] = second compound 0.1 µM, first compound 0.01 µM
[41] = second compound 0.316 µM, first compound 0.00316 µM
[42] = second compound 0.316 µM, first compound 0.01 µM
[43] = second compound 1 µM, first compound 0.00316 µM
[44] = second compound 1 µM, first compound 0.01 µM
[45] = second compound 3.16 µM, first compound 0.00316 µM
[46] = second compound 3.16 µM, first compound 0.01 µM
[47] = second compound 10 µM, first compound 0.00316 µM
[48] = second compound 10 µM, first compound 0.01 µM
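Further: spheroids exposed to the agents for one week.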
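Wherever viability, T/C is given: 100% = DMSO vehicle control wells.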

CC1COCCN1c1cc(-c2ccnn2C)c2ccnc(-c3ccn[nH]3)c2n1 (stereo not drawn) + Cc1cccc(N(C)C(=O)C2C(O)CCN2c2nc(C)cc(C(F)(F)F)c2C#N)c1
IC50 (second compound 0.0316 µM): 167 nM | IC50 (second compound 0.1 µM): 137 nM | IC50 (second compound 0.316 µM): 197 nM | IC50 (second compound 1 µM): 164 nM | IC50 (second compound 3.16 µM): 174 nM | IC50 (second compound 10 µM): 166 nM | viability, T/C [1]: 99.9% | viability, T/C [2]: 63.3% | viability, T/C [3]: 35.3% | viability, T/C [4]: 10.8% | viability, T/C [5]: 10.2% | viability, T/C [6]: 9.85% | viability, T/C [7]: 96.1% | viability, T/C [8]: 58.2% | viability, T/C [9]: 28.4% | viability, T/C [10]: 13.8% | viability, T/C [11]: 8.45% | viability, T/C [12]: 10.4% | viability, T/C [13]: 97.5% | viability, T/C [14]: 75.9% | viability, T/C [15]: 32.9% | viability, T/C [16]: 8.6% | viability, T/C [17]: 9.15% | viability, T/C [18]: 10.9% | viability, T/C [19]: 105% | viability, T/C [20]: 64.6% | viability, T/C [21]: 31.4% | viability, T/C [22]: 11.2% | viability, T/C [23]: 8.14% | viability, T/C [24]: 9.87% | viability, T/C [25]: 87.2% | viability, T/C [26]: 71.5% | viability, T/C [27]: 26.9% | viability, T/C [28]: 10.6% | viability, T/C [29]: 8.05% | viability, T/C [30]: 9.86% | viability, T/C [31]: 92.5% | viability, T/C [32]: 66.5% | viability, T/C [33]: 28.7% | viability, T/C [34]: 14.1% | viability, T/C [35]: 9.35% | viability, T/C [36]: 8.57%

COc1ccc([C@@H](O)c2cc(-c3ncnc4cc(N5CCOCC5)ccc34)c(F)cc2Cl)nn1 + Cc1cccc(N(C)C(=O)C2C(O)CCN2c2nc(C)cc(C(F)(F)F)c2C#N)c1
IC50 (second compound 0.0316 µM): > 10000 nM | IC50 (second compound 0.1 µM): > 10000 nM | IC50 (second compound 0.316 µM): > 10000 nM | IC50 (second compound 1 µM): > 10000 nM | IC50 (second compound 3.16 µM): > 10000 nM | IC50 (second compound 10 µM): > 10000 nM | viability, T/C [1]: 94% | viability, T/C [2]: 85.9% | viability, T/C [3]: 97.3% | viability, T/C [4]: 98.3% | viability, T/C [5]: 85.4% | viability, T/C [6]: 58.2% | viability, T/C [7]: 97.2% | viability, T/C [8]: 99.5% | viability, T/C [9]: 104% | viability, T/C [10]: 94.6% | viability, T/C [11]: 81.1% | viability, T/C [12]: 63.9% | viability, T/C [13]: 99.9% | viability, T/C [14]: 104% | viability, T/C [15]: 98.5% | viability, T/C [16]: 84.3% | viability, T/C [17]: 82.9% | viability, T/C [18]: 62.6% | viability, T/C [19]: 101% | viability, T/C [20]: 93.5% | viability, T/C [21]: 103% | viability, T/C [22]: 103% | viability, T/C [23]: 79% | viability, T/C [24]: 62.7% | viability, T/C [25]: 103% | viability, T/C [26]: 102% | viability, T/C [27]: 102% | viability, T/C [28]: 86.9% | viability, T/C [29]: 80.2% | viability, T/C [30]: 60.5% | viability, T/C [31]: 93.6% | viability, T/C [32]: 95% | viability, T/C [33]: 91.4% | viability, T/C [34]: 83.7% | viability, T/C [35]: 78% | viability, T/C [36]: 57.9%

COc1cccc(OCCCN)c1-c1cc(Nc2cnc(C#N)cn2)n[nH]1 + Cc1cccc(N(C)C(=O)C2C(O)CCN2c2nc(C)cc(C(F)(F)F)c2C#N)c1
IC50 (second compound 0.0316 µM): 603 nM | IC50 (second compound 0.1 µM): 585 nM | IC50 (second compound 0.316 µM): 610 nM | IC50 (second compound 1 µM): 599 nM | IC50 (second compound 3.16 µM): 436 nM | IC50 (second compound 10 µM): 140 nM | viability, T/C [37]: 107% | viability, T/C [38]: 107% | viability, T/C [1]: 103% | viability, T/C [2]: 104% | viability, T/C [3]: 89% | viability, T/C [4]: 19.8% | viability, T/C [39]: 104% | viability, T/C [40]: 104% | viability, T/C [7]: 103% | viability, T/C [8]: 97.7% | viability, T/C [9]: 91.3% | viability, T/C [10]: 14.5% | viability, T/C [41]: 102% | viability, T/C [42]: 101% | viability, T/C [13]: 101% | viability, T/C [14]: 98% | viability, T/C [15]: 93.5% | viability, T/C [16]: 17.2% | viability, T/C [43]: 102% | viability, T/C [44]: 98.8% | viability, T/C [19]: 103% | viability, T/C [20]: 98% | viability, T/C [21]: 92.4% | viability, T/C [22]: 16% | viability, T/C [45]: 103% | viability, T/C [46]: 106% | viability, T/C [25]: 101% | viability, T/C [26]: 99.5% | viability, T/C [27]: 65.1% | viability, T/C [28]: 10.7% | viability, T/C [47]: 99.2% | viability, T/C [48]: 101% | viability, T/C [31]: 94.3% | viability, T/C [32]: 65.5% | viability, T/C [33]: 13.2% | viability, T/C [34]: 9.72%

Cn1ncnc1[C@H]1c2n[nH]c(=O)c3cc(F)cc(c23)N[C@@H]1c1ccc(F)cc1 + Cc1cccc(N(C)C(=O)C2C(O)CCN2c2nc(C)cc(C(F)(F)F)c2C#N)c1
IC50 (second compound 0.0316 µM): > 100 nM | IC50 (second compound 0.1 µM): > 100 nM | IC50 (second compound 0.316 µM): > 100 nM | IC50 (second compound 1 µM): > 100 nM | IC50 (second compound 3.16 µM): 83 nM | IC50 (second compound 10 µM): 30.7 nM | viability, T/C (second compound 0.0316 µM, first compound 0.000316 µM): 97.8% | viability, T/C (second compound 0.0316 µM, first compound 0.001 µM): 95.5% | viability, T/C [37]: 111% | viability, T/C [38]: 98.3% | viability, T/C [1]: 99% | viability, T/C [2]: 70.2% | viability, T/C (second compound 0.1 µM, first compound 0.000316 µM): 108% | viability, T/C (second compound 0.1 µM, first compound 0.001 µM): 105% | viability, T/C [39]: 94.2% | viability, T/C [40]: 94.4% | viability, T/C [7]: 90.2% | viability, T/C [8]: 74.9% | viability, T/C (second compound 0.316 µM, first compound 0.000316 µM): 107% | viability, T/C (second compound 0.316 µM, first compound 0.001 µM): 106% | viability, T/C [41]: 102% | viability, T/C [42]: 106% | viability, T/C [13]: 91.2% | viability, T/C [14]: 67.2% | viability, T/C (second compound 1 µM, first compound 0.000316 µM): 107% | viability, T/C (second compound 1 µM, first compound 0.001 µM): 108% | viability, T/C [43]: 111% | viability, T/C [44]: 96.8% | viability, T/C [19]: 97.4% | viability, T/C [20]: 66.2% | viability, T/C (second compound 3.16 µM, first compound 0.000316 µM): 100% | viability, T/C (second compound 3.16 µM, first compound 0.001 µM): 101% | viability, T/C [45]: 99.9% | viability, T/C [46]: 96.8% | viability, T/C [25]: 92.3% | viability, T/C [26]: 41.6% | viability, T/C (second compound 10 µM, first compound 0.000316 µM): 111% | viability, T/C (second compound 10 µM, first compound 0.001 µM): 97.4% | viability, T/C [47]: 99% | viability, T/C [48]: 72.9% | viability, T/C [31]: 49.8% | viability, T/C [32]: 32%

From PubChem BioAssay AID1963830 (Molecular Pharmacology Branch, DTP, NCI, 2024)
